# Measured values from paper PMC10892984, “Novel Antineoplastic Inducers of Mitochondrial Apoptosis in Human Cancer Cells” (Molecules, 2024).
# Tests used:
# TK-10 = settings: for TGI: TK-10, renal cancer, mutant p53, 48 h
# MDA-MB-231 = settings: for TGI: MDA-MB-231, breast cancer, mutant p53, 48 h
# OVCAR-4 = settings: for TGI: OVCAR-4, ovarian cancer, mutant p53, 48 h
# UACC-257 = settings: for TGI: UACC-257, melanoma, wild-type p53, 48 h
# RPMI-8226 = settings: for TGI: RPMI-8226, leukemia, mutant p53, 48 h
# SNB-75 = settings: for TGI: SNB-75, CNS cancer (brain tumor), mutant p53, 48 h
# HCT-116 = settings: for TGI: HCT-116, colon cancer, wild-type p53, 48 h
# SF-539 = settings: for TGI: SF-539, CNS cancer (brain tumor), mutant p53, 48 h
# SF-268 = settings: for TGI: SF-268, CNS cancer (brain tumor), mutant p53, 48 h
# NCI-H460 = settings: for TGI: NCI-H460, non-small-cell lung cancer, wild-type p53, 48 h
# MALME-3M = settings: 48 h; for TGI: MALME-3M, melanoma, wild-type p53
# SK-MEL-2 = settings: for TGI: SK-MEL-2, melanoma, mutant p53, 48 h
# MOLT-4 = settings: for TGI: MOLT-4, leukemia, mutant p53, 48 h
# DU-145 = settings: for TGI: DU-145, prostate cancer, mutant p53, 48 h
# HOP-62 = settings: for TGI: HOP-62, non-small-cell lung cancer, mutant p53, 48 h
# SW-620 = settings: for TGI: SW-620, colon cancer, mutant p53, 48 h
# BT-549 = settings: for TGI: BT-549, breast cancer, mutant p53, 48 h
# PC-3 = settings: for TGI: PC-3, prostate cancer, mutant p53 (null p53 protein), 48 h
# DU-145 cells = assay: Cytochrome c assay (mitochondrial and cytosolic), ELISA; format: cell-based, human; settings: for toxicity for the cell line: 50 µM and 75 µM, 48 h post-treatment
# Method: (§1) Cell numbers of 2 × 10^6 PC-3 and DU-145 cells were seeded into a […]. […] The protein content for each fraction was calculated to determine the mass content of cytochrome c in each fraction (pg cytochrome c/mg total protein). The mass content of cytochrome c (pg cytochrome c/mg total protein) was normalized towards the corresponding blank DMSO control and is given in percent (%) of blank DMSO control.
# PC-3 cells = assay: as above; format: cell-based, human; settings: for toxicity for the cell line: 50 µM and 75 µM, 48 h post-treatment
# Method: as §1
# SK-MEL-28 = settings: for TGI: SK-MEL-28, melanoma, mutant p53, 48 h
# NCI-H522 = settings: for TGI: NCI-H522, non-small-cell lung cancer, mutant p53, 48 h
# OVCAR-5 = settings: for TGI: OVCAR-5, ovarian cancer, p53 Lit. inconclusive, 48 h
# MDA-MB-468 = settings: for TGI: MDA-MB-468, breast cancer, mutant p53, 48 h
# NCI-H23 = settings: for TGI: NCI-H23, non-small-cell lung cancer, mutant p53, 48 h
# HS 578T = settings: 48 h; for TGI: HS 578T, breast cancer, mutant p53
# [1] = 48 h, tested 500 nM, 1 µM, 5 µM, 25 µM
smiles,measurement,setting,value
"COc1cc2c(c(OC)c1OC)-c1ccc(NNC(N)=S)c(=O)cc1C(NC(C)=O)CC2 [Compound 2, N-[(aS,7S)-10-(2-carbamothioylhydrazinyl)-1,2,3-trimethoxy-9-oxo-5,6,7,9-tetrahydrobenzo[a]heptalen-7-yl]acetamide monohydrate × ⅔ (ethyl acetate)]",GI50,"TK-10; Homo sapiens, TK-10, 48 h",6.77 µM
same,CC50,"TK-10; Homo sapiens, TK-10, 48 h, read-out: LC50",> 100 µM
same,TGI,TK-10,> 100 µM
same,GI50,"MDA-MB-231; Homo sapiens, MDA-MB-231, 48 h",0.359 µM
same,CC50,"MDA-MB-231; Homo sapiens, MDA-MB-231, 48 h, read-out: LC50",> 100 µM
same,TGI,MDA-MB-231,1.88 µM
same,GI50,"OVCAR-4; Homo sapiens, OVCAR-4, 48 h",0.507 µM
same,CC50,"OVCAR-4; Homo sapiens, OVCAR-4, 48 h, read-out: LC50",> 100 µM
same,TGI,OVCAR-4,> 100 µM
same,GI50,"UACC-257; Homo sapiens, UACC-257, 48 h",0.646 µM
same,CC50,"UACC-257; Homo sapiens, UACC-257, 48 h, read-out: LC50",> 100 µM
same,TGI,UACC-257,> 100 µM
same,GI50,"RPMI-8226; Homo sapiens, RPMI-8226, 48 h",0.349 µM
same,CC50,"RPMI-8226; Homo sapiens, RPMI-8226, 48 h, read-out: LC50",> 100 µM
same,TGI,RPMI-8226,8.65 µM
same,GI50,"SNB-75; Homo sapiens, SNB-75, 48 h",0.441 µM
same,CC50,"SNB-75; Homo sapiens, SNB-75, 48 h, read-out: LC50",> 100 µM
same,TGI,SNB-75,> 100 µM
same,TGI,HCT-116,10.6 µM
same,GI50,"HCT-116; Homo sapiens, HCT-116, 48 h",0.377 µM
same,CC50,"HCT-116; Homo sapiens, HCT-116, 48 h, read-out: LC50",> 100 µM
same,GI50,"SF-539; Homo sapiens, SF-539, 48 h",0.418 µM
same,CC50,"SF-539; Homo sapiens, SF-539, 48 h, read-out: LC50",> 100 µM
same,TGI,SF-539,20.5 µM
same,GI50,"SF-268; Homo sapiens, SF-268, 48 h",0.581 µM
same,CC50,"SF-268; Homo sapiens, SF-268, 48 h, read-out: LC50",> 100 µM
same,TGI,SF-268,> 100 µM
same,GI50,"NCI-H460; Homo sapiens, NCI-H460, 48 h",0.429 µM
same,CC50,"NCI-H460; Homo sapiens, NCI-H460, 48 h, read-out: LC50",> 100 µM
same,TGI,NCI-H460,> 100 µM
same,GI50,"MALME-3M; Homo sapiens, Malme-3M",0.394 µM
same,CC50,"MALME-3M; Homo sapiens, Malme-3M, read-out: LC50",> 100 µM
same,TGI,MALME-3M,> 100 µM
same,GI50,"SK-MEL-2; Homo sapiens, SK-MEL-2, 48 h",> 100 µM
same,CC50,"SK-MEL-2; Homo sapiens, SK-MEL-2, 48 h, read-out: LC50",> 100 µM
same,TGI,SK-MEL-2,> 100 µM
same,GI50,"MOLT-4; Homo sapiens, MOLT-4, 48 h",0.548 µM
same,CC50,"MOLT-4; Homo sapiens, MOLT-4, 48 h, read-out: LC50",> 100 µM
same,TGI,MOLT-4,> 100 µM
same,TGI,DU-145,1.44 µM
same,GI50,"DU-145; Homo sapiens, DU-145, 48 h",0.341 µM
same,CC50,"DU-145; Homo sapiens, DU-145, 48 h, read-out: LC50",> 100 µM
same,TGI,HOP-62,> 100 µM
same,GI50,"HOP-62; Homo sapiens, HOP-62, 48 h",0.7 µM
same,CC50,"HOP-62; Homo sapiens, HOP-62, 48 h, read-out: LC50",> 100 µM
same,GI50,"SW-620; Homo sapiens, SW-620, 48 h",0.369 µM
same,CC50,"SW-620; Homo sapiens, SW-620, 48 h, read-out: LC50",> 100 µM
same,TGI,SW-620,> 100 µM
same,TGI,BT-549,0.924 µM
same,GI50,"BT-549; Homo sapiens, BT-549, 48 h",0.294 µM
same,CC50,"BT-549; Homo sapiens, BT-549, 48 h, read-out: LC50",> 100 µM
same,GI50,"PC-3; Homo sapiens, PC-3, 48 h",0.255 µM
same,CC50,"PC-3; Homo sapiens, PC-3, 48 h, read-out: LC50",> 100 µM
same,TGI,PC-3,> 100 µM
same,toxicity for the cell line,DU-145 cells; 25 µM,highly toxic
same,difference in the cytochrome c-residing cellular compartment,"DU-145 cells; 48 h, stated as less significantly than in PC-3",failed to induce a significant difference
same,toxicity for the cell line,PC-3 cells; 25 µM,highly toxic
same,difference in the cytochrome c-residing cellular compartment,PC-3 cells; 48 h,failed to induce a significant difference
same,CC50,"SK-MEL-28; Homo sapiens, SK-MEL-28, 48 h, read-out: LC50",> 100 µM
same,TGI,SK-MEL-28,> 100 µM
same,GI50,"NCI-H522; Homo sapiens, NCI-H522, 48 h",0.55 µM
same,CC50,"NCI-H522; Homo sapiens, NCI-H522, 48 h, read-out: LC50",> 100 µM
same,TGI,NCI-H522,> 100 µM
same,GI50,"OVCAR-5; Homo sapiens, OVCAR-5, 48 h",9.67 µM
same,CC50,"OVCAR-5; Homo sapiens, OVCAR-5, 48 h, read-out: LC50",> 100 µM
same,TGI,OVCAR-5,> 100 µM
same,GI50,"MDA-MB-468; Homo sapiens, MDA-MB-468, 48 h",0.158 µM
same,CC50,"MDA-MB-468; Homo sapiens, MDA-MB-468, 48 h, read-out: LC50",> 100 µM
same,TGI,MDA-MB-468,0.464 µM
same,GI50,"NCI-H23; Homo sapiens, NCI-H23, 48 h",0.438 µM
same,CC50,"NCI-H23; Homo sapiens, NCI-H23, 48 h, read-out: LC50",> 100 µM
same,TGI,NCI-H23,> 100 µM
same,TGI,HS 578T,> 100 µM
same,GI50,"HS 578T; Homo sapiens, Hs-578T",> 100 µM
same,CC50,"HS 578T; Homo sapiens, Hs-578T, read-out: LC50",> 100 µM
"COc1cc2c(c(OC)c1OC)-c1ccc(NNC(=S)N(Cc3cccc(C[N+](Cc4cccc(CNC56CC7CC(CC(C7)C5)C6)c4)(Cc4cccc(CNC56CC7CC(CC(C7)C5)C6)c4)Cc4cccc(CN(C(=S)NNc5ccc6c(cc5=O)C(NC(C)=O)CCc5cc(OC)c(OC)c(OC)c5-6)C56CC7CC(CC(C7)C5)C6)c4)c3)C34CC5CC(CC(C5)C3)C4)c(=O)cc1C(NC(C)=O)CC2 [Compound 3, [(bis{3-[(tricyclo[3.3.1.1^3,7]decan-1-ylamino)methyl]benzyl}ammonio)bis(methanediylbenzene-3,1-diylmethanediyl)]di-2-[(aS,7S)-7-(acetylamino)-1,2,3-trimethoxy-9-oxo-5,6,7,9-tetrahydrobenzo[a]heptalen-10-yl]-N-(tricyclo[3.3.1.1^3,7]decan-1-yl)hydrazinecarbothioamide chloride pentahydrate]",TGI,TK-10,8.35 µM
same,TGI,MDA-MB-231,2.99 µM
same,TGI,OVCAR-4,8.94 µM
same,TGI,UACC-257,10.3 µM
same,TGI,RPMI-8226,1.76 µM
same,TGI,SNB-75,6.68 µM
same,TGI,HCT-116,3.07 µM
same,TGI,SF-539,4.30 µM
same,TGI,SF-268,6.54 µM
same,TGI,NCI-H460,3.79 µM
same,TGI,MALME-3M,3.04 µM
same,TGI,SK-MEL-2,2.76 µM
same,TGI,MOLT-4,1.93 µM
same,TGI,DU-145,7.10 µM
same,TGI,HOP-62,7.43 µM
same,TGI,SW-620,2.06 µM
same,TGI,BT-549,5.89 µM
same,TGI,PC-3,5.64 µM
same,toxicity for the cell line,DU-145 cells; 25 µM,highly toxic
same,concentration at which cytochrome c translocation from mitochondria into the cytosol was readily induced,DU-145 cells; [1],25.0 µM
same,toxicity for the cell line,PC-3 cells; 25 µM,highly toxic
same,cell death with depletion of cytosolic cytochrome c,"PC-3 cells; 25.0 µM, 48 h",induced complete cell death
same,concentration at which cytochrome c translocation from mitochondria into the cytosol was readily induced,PC-3 cells; [1],5.0 µM
same,TGI,SK-MEL-28,4.07 µM
same,TGI,NCI-H522,1.88 µM
same,TGI,OVCAR-5,5.03 µM
same,TGI,MDA-MB-468,1.75 µM
same,TGI,NCI-H23,5.33 µM
same,TGI,HS 578T,6.76 µM
